Measured values reported in ChEMBL document CHEMBL3526047, “Excretion, metabolism, and pharmacokinetics of 1-(8-(2-chlorophenyl)-9-(4-chlorophenyl)-9H-purin-6-yl)-4-(ethylamino)piperidine-4-carboxamide, a selective cannabinoid receptor antagonist, in healthy male volunteers” (Drug Metab Dispos, 2012).

Experiments:
Serum [1] = experiment: Total drug level in healthy obese adult male human serum at 25 mg, po administered as single dose after 48 hrs by HPLC method; assay type: ADME, organism-based; conditions: in vivo
Cytochrome P450 2C8 = biological target: T1, Cytochrome P450 2C8 (Homo sapiens, UniProt P10632); experiment: Drug metabolism assessed as human recombinant CYP2C8-mediated metabolite formation at 10 uM after 60 mins by HPLC method; assay type: ADME; conditions: recombinant enzyme, 1 h
T1 sequence (P10632 whole entry): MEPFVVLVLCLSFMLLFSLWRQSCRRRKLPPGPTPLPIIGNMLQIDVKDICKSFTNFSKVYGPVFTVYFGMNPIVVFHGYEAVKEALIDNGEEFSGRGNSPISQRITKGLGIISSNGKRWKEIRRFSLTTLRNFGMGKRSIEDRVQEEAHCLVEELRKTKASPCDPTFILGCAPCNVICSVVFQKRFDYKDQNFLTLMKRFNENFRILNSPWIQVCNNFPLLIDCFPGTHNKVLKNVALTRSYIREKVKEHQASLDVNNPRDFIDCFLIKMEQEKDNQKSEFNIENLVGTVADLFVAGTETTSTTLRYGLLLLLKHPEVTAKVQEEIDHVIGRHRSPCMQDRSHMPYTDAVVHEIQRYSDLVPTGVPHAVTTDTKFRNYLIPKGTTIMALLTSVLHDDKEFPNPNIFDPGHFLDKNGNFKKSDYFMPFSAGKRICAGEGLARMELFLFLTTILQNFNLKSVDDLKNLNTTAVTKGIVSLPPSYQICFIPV

Homo sapiens [2] = experiment: Cmax in healthy obese adult male human assessed as total radioactivity at 25 mg, po administered as single dose; assay type: ADME, organism-based; parameters: dose 25 mg, route oral; conditions: in vivo
Cytochrome P450 1A1 = biological target: T2, Cytochrome P450 1A1 (Homo sapiens, UniProt P04798); experiment: Drug metabolism assessed as human recombinant CYP1A1-mediated metabolite formation at 10 uM after 60 mins by HPLC method; assay type: ADME; conditions: recombinant enzyme, 1 h
T2 sequence (P04798 whole entry): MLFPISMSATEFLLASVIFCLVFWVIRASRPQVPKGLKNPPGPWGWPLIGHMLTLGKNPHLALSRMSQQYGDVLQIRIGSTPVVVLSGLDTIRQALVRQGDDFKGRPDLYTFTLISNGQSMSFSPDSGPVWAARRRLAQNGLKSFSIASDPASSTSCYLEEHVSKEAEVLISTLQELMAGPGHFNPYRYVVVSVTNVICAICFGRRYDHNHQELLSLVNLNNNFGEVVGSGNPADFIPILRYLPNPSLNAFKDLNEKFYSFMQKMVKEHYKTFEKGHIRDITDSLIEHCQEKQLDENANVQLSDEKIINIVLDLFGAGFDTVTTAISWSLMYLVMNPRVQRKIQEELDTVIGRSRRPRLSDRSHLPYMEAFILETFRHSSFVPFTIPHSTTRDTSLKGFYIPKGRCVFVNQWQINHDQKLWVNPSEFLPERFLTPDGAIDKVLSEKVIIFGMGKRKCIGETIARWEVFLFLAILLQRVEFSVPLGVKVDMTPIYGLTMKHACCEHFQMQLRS

Cytochrome P450 1A2 = biological target: T3, Cytochrome P450 1A2 (Homo sapiens, UniProt P05177); experiment: Drug metabolism assessed as human recombinant CYP1A2-mediated metabolite formation at 10 uM after 60 mins by HPLC method; assay type: ADME; conditions: recombinant enzyme, 1 h
T3 sequence (P05177 whole entry): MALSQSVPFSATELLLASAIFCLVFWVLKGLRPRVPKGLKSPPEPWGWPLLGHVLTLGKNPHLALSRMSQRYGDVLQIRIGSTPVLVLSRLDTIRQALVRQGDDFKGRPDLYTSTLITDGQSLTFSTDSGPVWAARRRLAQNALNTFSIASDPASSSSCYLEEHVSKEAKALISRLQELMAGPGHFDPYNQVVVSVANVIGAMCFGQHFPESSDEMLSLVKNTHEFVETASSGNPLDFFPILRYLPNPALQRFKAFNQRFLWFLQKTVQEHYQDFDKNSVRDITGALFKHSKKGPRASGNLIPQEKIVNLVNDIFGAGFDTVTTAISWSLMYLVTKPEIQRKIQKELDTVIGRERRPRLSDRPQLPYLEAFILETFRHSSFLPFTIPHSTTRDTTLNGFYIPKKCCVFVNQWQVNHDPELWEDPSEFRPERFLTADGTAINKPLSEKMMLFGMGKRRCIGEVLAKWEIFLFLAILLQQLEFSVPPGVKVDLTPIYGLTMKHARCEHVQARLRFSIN

Cytochrome P450 2E1 = Cytochrome P450 2E1 (Homo sapiens, UniProt P05181); experiment: Drug metabolism assessed as human recombinant CYP2E1-mediated metabolite formation at 10 uM after 60 mins by HPLC method; assay type: ADME; conditions: recombinant enzyme, 1 h
Sequence of Cytochrome P450 2E1 (P05181 whole entry): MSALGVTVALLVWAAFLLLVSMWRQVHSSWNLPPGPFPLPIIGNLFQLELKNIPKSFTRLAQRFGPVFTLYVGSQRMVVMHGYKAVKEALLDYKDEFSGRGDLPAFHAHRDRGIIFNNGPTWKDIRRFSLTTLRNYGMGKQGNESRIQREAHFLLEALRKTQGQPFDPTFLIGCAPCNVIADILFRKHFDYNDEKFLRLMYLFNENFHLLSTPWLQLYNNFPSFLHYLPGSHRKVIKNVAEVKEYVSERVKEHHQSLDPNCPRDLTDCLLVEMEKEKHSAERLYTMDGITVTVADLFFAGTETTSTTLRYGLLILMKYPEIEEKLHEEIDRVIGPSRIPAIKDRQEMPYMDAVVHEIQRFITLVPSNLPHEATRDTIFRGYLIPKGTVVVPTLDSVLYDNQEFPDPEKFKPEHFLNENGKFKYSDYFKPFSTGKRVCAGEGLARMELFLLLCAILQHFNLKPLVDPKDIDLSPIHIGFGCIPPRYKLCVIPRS

Cytochrome P450 2D6 = Cytochrome P450 2D6 (Homo sapiens, UniProt P10635); experiment: Drug metabolism assessed as human recombinant CYP2D6-mediated metabolite formation at 10 uM after 60 mins by HPLC method; assay type: ADME; conditions: recombinant enzyme, 1 h
Sequence of Cytochrome P450 2D6 (P10635 whole entry): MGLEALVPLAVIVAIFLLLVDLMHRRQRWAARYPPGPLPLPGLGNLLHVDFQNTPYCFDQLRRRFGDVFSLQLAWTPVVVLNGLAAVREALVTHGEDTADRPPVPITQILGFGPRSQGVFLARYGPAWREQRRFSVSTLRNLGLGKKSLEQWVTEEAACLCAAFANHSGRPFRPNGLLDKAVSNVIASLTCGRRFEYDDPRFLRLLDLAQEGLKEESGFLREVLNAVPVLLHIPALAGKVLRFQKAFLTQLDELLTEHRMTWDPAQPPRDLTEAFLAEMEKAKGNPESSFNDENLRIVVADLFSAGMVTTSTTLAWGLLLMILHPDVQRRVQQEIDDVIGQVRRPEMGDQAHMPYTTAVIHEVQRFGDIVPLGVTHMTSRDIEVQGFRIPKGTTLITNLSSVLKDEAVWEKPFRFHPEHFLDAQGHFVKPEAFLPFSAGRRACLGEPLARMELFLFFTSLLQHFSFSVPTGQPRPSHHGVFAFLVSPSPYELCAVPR

Homo sapiens [3] = experiment: AUC (0 to infinity) in healthy obese adult male human assessed as total radioactivity at 25 mg, po administered as single dose; assay type: ADME, organism-based, Plasma; parameters: dose 25 mg, time infinity, route oral; conditions: in vivo
Serum [4] = experiment: Drug level in healthy obese adult male human serum at 25 mg, po administered as single dose after 4 hrs by HPLC method; assay type: ADME, organism-based; conditions: in vivo
Homo sapiens [5] = experiment: Terminal elimination half life in healthy obese adult male human assessed as total radioactivity at 25 mg, po administered as single dose; assay type: ADME, organism-based; conditions: in vivo
Serum [6] = experiment: AUC in healthy obese adult male human serum at 25 mg, po administered as single dose after 48 hrs by HPLC method; assay type: ADME, organism-based, Plasma; parameters: time < 48 hr, dose 25 mg, route oral; conditions: in vivo
Homo sapiens [7] = experiment: Tmax in healthy obese adult male human assessed as total radioactivity at 25 mg, po administered as single dose; assay type: ADME, organism-based; conditions: in vivo
Serum [8] = experiment: Drug level in healthy obese adult male human serum at 25 mg, po administered as single dose after 48 hrs by HPLC method; assay type: ADME, organism-based; conditions: in vivo
Serum [9] = experiment: Drug level in healthy obese adult male human serum at 25 mg, po administered as single dose after 12 hrs by HPLC method; assay type: ADME, organism-based; conditions: in vivo
Rattus norvegicus = organism: Rattus norvegicus; experiment: Drug recovery in rat; assay type: ADME, organism-based; conditions: in vivo
Canis familiaris = organism: Canis familiaris; experiment: Drug recovery in dog; assay type: ADME, organism-based, Canis lupus familiaris; conditions: in vivo
Mus musculus = organism: Mus musculus; experiment: Drug recovery in mouse; assay type: ADME, organism-based; conditions: in vivo
Cytochrome P450 2C19 = Cytochrome P450 2C19 (Homo sapiens, UniProt P33261); experiment: Drug metabolism assessed as human recombinant CYP2C19-mediated metabolite formation at 10 uM after 60 mins by HPLC method; assay type: ADME; conditions: recombinant enzyme, 1 h
Sequence of Cytochrome P450 2C19 (P33261 whole entry): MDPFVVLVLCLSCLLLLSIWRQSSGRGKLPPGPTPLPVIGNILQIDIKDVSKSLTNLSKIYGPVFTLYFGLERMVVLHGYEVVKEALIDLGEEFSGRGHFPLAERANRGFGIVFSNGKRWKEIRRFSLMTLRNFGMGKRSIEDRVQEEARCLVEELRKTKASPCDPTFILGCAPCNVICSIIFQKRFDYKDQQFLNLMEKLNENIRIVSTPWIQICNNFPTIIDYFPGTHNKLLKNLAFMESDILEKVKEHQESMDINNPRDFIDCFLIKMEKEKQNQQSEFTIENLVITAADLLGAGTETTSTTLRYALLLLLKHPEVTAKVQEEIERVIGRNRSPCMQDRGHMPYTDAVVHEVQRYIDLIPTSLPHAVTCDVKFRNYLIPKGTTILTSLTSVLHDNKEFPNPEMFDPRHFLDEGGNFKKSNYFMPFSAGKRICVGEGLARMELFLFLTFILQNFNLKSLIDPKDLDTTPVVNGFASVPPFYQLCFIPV

Serum [10] = experiment: Drug level in healthy obese adult male human serum at 25 mg, po administered as single dose after 24 hrs by HPLC method; assay type: ADME, organism-based; conditions: in vivo
Cytochrome P450 2C9 = Cytochrome P450 2C9 (Homo sapiens, UniProt P11712); experiment: Drug metabolism assessed as human recombinant CYP2C9-mediated metabolite formation at 10 uM after 60 mins by HPLC method; assay type: ADME; conditions: recombinant enzyme, 1 h
Sequence of Cytochrome P450 2C9 (P11712 whole entry): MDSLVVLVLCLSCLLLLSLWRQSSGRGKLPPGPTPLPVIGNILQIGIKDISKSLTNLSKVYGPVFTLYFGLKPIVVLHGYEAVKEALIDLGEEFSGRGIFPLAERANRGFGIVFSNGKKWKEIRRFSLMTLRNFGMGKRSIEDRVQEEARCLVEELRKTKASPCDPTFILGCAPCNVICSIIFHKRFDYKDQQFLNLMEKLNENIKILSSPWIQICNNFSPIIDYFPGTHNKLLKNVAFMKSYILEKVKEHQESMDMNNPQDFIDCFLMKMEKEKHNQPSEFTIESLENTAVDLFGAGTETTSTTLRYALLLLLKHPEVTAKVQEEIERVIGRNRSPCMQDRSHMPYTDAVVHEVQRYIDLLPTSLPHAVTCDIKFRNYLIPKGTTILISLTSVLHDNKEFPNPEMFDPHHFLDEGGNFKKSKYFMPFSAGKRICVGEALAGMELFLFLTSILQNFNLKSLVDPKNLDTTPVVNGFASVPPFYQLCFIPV

Homo sapiens [11] = experiment: AUC (0 to last) in healthy obese adult male human assessed as total radioactivity at 25 mg, po administered as single dose; assay type: ADME, organism-based, Plasma; conditions: in vivo
Serum [12] = experiment: Drug level in serum of healthy obese adult male human treated with [14C]CP-945,598 at 25 mg, po administered as single dose after 12 hrs by HPLC method; assay type: ADME, organism-based; conditions: in vivo
Serum [13] = experiment: Drug level in serum of healthy obese adult male human treated with [14C]CP-945,598 at 25 mg, po administered as single dose after 48 hrs by HPLC method; assay type: ADME, organism-based; conditions: in vivo
Serum [14] = experiment: Drug level in serum of healthy obese adult male human treated with [14C]CP-945,598 at 25 mg, po administered as single dose after 24 hrs by HPLC method; assay type: ADME, organism-based; conditions: in vivo
Serum [15] = experiment: AUC in serum of healthy obese adult male human treated with [14C]CP-945,598 at 25 mg, po administered as single dose after 48 hrs by HPLC method; assay type: ADME, organism-based; parameters: time < 48 hr, dose 25 mg, route oral; conditions: in vivo
Serum [16] = experiment: Drug level in serum of healthy obese adult male human treated with [14C]CP-945,598 at 25 mg, po administered as single dose after 4 hrs by HPLC method; assay type: ADME, organism-based; conditions: in vivo
Cytochrome P450 3A4 = Cytochrome P450 3A4 (Homo sapiens, UniProt P08684); experiment: Drug metabolism assessed as human recombinant CYP3A4-mediated metabolite formation after 60 mins by HPLC method; assay type: ADME; conditions: recombinant enzyme, 1 h
Sequence of Cytochrome P450 3A4 (P08684 whole entry): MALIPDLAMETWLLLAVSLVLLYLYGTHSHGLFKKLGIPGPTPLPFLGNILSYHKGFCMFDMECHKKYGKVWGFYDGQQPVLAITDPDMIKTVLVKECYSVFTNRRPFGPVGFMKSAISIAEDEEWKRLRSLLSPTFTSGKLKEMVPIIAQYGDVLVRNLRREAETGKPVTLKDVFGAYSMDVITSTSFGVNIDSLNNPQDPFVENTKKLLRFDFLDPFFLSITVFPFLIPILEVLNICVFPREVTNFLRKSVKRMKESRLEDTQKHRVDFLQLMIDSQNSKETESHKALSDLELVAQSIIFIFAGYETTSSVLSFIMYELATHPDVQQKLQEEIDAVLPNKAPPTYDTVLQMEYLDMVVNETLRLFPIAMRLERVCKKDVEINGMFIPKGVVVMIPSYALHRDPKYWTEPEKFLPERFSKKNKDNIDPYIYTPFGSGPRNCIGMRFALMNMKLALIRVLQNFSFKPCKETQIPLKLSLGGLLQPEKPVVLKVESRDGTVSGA

Serum [17] = experiment: Total drug level in serum of healthy obese adult male human treated with [14C]CP-945,598 at 25 mg, po administered as single dose after 48 hrs by HPLC method; assay type: ADME, organism-based; conditions: in vivo
Homo sapiens [18] = experiment: Total drug excretion in healthy obese adult male human treated with [14C]CP-945,598 at 25 mg, po administered as single dose after 0 to 384 hrs hrs by HPLC method; assay type: ADME, organism-based; conditions: in vivo
[19] = Drug excretion in feces of healthy obese adult male human treated with [14C]CP-945,598 at 25 mg, po administered as single dose after 0 to 384 hrs hrs by HPLC method; assay type: ADME, organism-based; conditions: in vivo
Homo sapiens [20] = experiment: Terminal elimination half life in healthy obese adult male human treated with [14C]CP-945,598 at 25 mg, po administered as single dose; assay type: ADME, organism-based; conditions: in vivo
Homo sapiens [21] = experiment: Tmax in healthy obese adult male human treated with [14C]CP-945,598 at 25 mg, po administered as single dose; assay type: ADME, organism-based; conditions: in vivo
Homo sapiens [22] = experiment: Cmax in healthy obese adult male human treated with [14C]CP-945,598 at 25 mg, po administered as single dose; assay type: ADME, organism-based; parameters: dose 25 mg, route oral; conditions: in vivo
Homo sapiens [23] = experiment: AUC (0 to last) in healthy obese adult male human treated with [14C]CP-945,598 at 25 mg, po administered as single dose; assay type: ADME, organism-based, Plasma; parameters: dose 25 mg, route oral, time 0 - last; conditions: in vivo
Homo sapiens [24] = experiment: AUC (0 to infinity) in healthy obese adult male human treated with [14C]CP-945,598 at 25 mg, po administered as single dose; assay type: ADME, organism-based, Plasma; parameters: dose 25 mg, time infinity, route oral; conditions: in vivo
[25] = Drug excretion in urine of healthy obese adult male human treated with [14C]CP-945,598 at 25 mg, po administered as single dose after 0 to 384 hrs hrs by HPLC method; assay type: ADME, organism-based; conditions: in vivo

Structure (SMILES): CCNC1(C(N)=O)CCN(c2ncnc3c2n[14c](-c2ccccc2Cl)n3-c2ccc(Cl)cc2)CC1.Cl
- Drug uptake (Serum [1]): 12.1 ngequiv/g
- Drug metabolism (Cytochrome P450 2C8): metabolite_not_detected
- Cmax (Homo sapiens [2]): 74 ngequiv/g
- Drug metabolism (Cytochrome P450 1A1): metabolite_not_detected
- Drug metabolism (Cytochrome P450 1A2): metabolite_not_detected
- Drug metabolism (Cytochrome P450 2E1): metabolite_not_detected
- Drug metabolism (Cytochrome P450 2D6): metabolite_not_detected
- AUC (Homo sapiens [3]): 9434 ng/h/mL
- Drug uptake (Serum [4]): 11.5 ngequiv/g
- beta t1/2 (Homo sapiens [5]): 190 h
- AUC (Serum [6]): 297 ngequiv.hr/g
- Tmax (Homo sapiens [7]): 6 h
- Drug uptake (Serum [8]): 2.7 ngequiv/g
- Drug uptake (Serum [9]): 8 ngequiv/g
- Drug recovery (Rattus norvegicus): 98%
- Drug recovery (Canis familiaris): 99%
- Drug recovery (Mus musculus): 98%
- Drug metabolism (Cytochrome P450 2C19): metabolite_not_detected
- Drug uptake (Serum [10]): 6.4 ngequiv/g
- Drug metabolism (Cytochrome P450 2C9): metabolite_not_detected
- AUClast (Homo sapiens [11]): 8298 ngequiv.hr/g

Structure (SMILES): O=C1CCN(c2ncnc3c2nc(-c2ccccc2Cl)n3-c2ccc(Cl)cc2)CC1
- Drug uptake (Serum [12]): 3.6 ngequiv/g
- Drug uptake (Serum [13]): 9.7 ngequiv/g
- Drug uptake (Serum [14]): 7.2 ngequiv/g
- AUC (Serum [15]): 309 ngequiv.hr/g
- Drug uptake (Serum [16]): 4.5 ngequiv/g
- Drug metabolism (Cytochrome P450 3A4): 26.9%
- Drug uptake (Serum [17]): 12.6 ngequiv/g

Structure (SMILES): NC(=O)C1(NC2O[C@H](CO)[C@@H](O)[C@H]2O)CCN(c2ncnc3c2nc(-c2ccccc2Cl)n3-c2ccc(Cl)cc2)CC1 (stereo not given in full)
- Drug excretion (Homo sapiens [18]): 6.3%
- Drug excretion [19]: 6.3%

Structure (SMILES): NC(=O)C1(N)CCN(c2ncnc3c2nc(-c2ccccc2Cl)n3-c2ccc(Cl)cc2)CC1
- Drug uptake (Serum [12]): 38.1 ngequiv/g
- beta t1/2 (Homo sapiens [20]): 139 h
- Drug uptake (Serum [13]): 23.1 ngequiv/g
- Drug uptake (Serum [14]): 31.8 ngequiv/g
- Tmax (Homo sapiens [21]): 6.8 h
- Cmax (Homo sapiens [22]): 0.042 µg/mL
- AUC (Serum [15]): 1401 ngequiv.hr/g
- Drug uptake (Serum [16]): 28.4 ngequiv/g
- Drug excretion (Homo sapiens [18]): 6.8%
- AUClast (Homo sapiens [23]): 3.73 µg·h/mL
- AUC (Homo sapiens [24]): 3.97 µg·h/mL
- Drug excretion [19]: 4.5%
- Drug metabolism (Cytochrome P450 3A4): 48.1%
- Drug excretion [25]: 2.3%
- Drug uptake (Serum [17]): 57.3 ngequiv/g
